Data on 25 compounds can be found in ChEMBL document CHEMBL4699440, “Comprehensive review on the anti-bacterial activity of 1,2,3-triazole hybrids” (Eur J Med Chem, 2019).

Molecules are shown by their SMILES. In brackets after ≈: the same amount, converted by molar mass.

Holding throughout (format): functional
In test [1] the test system is Staphylococcus aureus. The test can be described thus: Antibacterial activity against Staphylococcus aureus by agar dilution method.
The subject of test [2] is Bacillus cereus. The experiment in a line: Antibacterial activity against Bacillus cereus by agar dilution method. (In general: In agar dilution, organisms are placed on agar that contains the substance at set levels.)
For test [3], the system named is Escherichia coli. The test can be described thus: Antibacterial activity against Escherichia coli by agar dilution method.
Test [4] deals with Pseudomonas aeruginosa. The test can be described thus: Antibacterial activity against Pseudomonas aeruginosa by agar dilution method.
In the next test the test system is Klebsiella pneumoniae. The test can be described thus: Antibacterial activity against Klebsiella pneumoniae ATCC 27736 by CLSI-based broth dilution method. A general note: Dilution methods test growth across graded concentrations, often in twofold steps.
For test [5], the system named is Staphylococcus aureus. The test can be described thus: Antibacterial activity against methicillin-resistant Staphylococcus aureus ATCC 25923 by CLSI-based broth dilution method.
For test [6], the system named is Staphylococcus aureus. The experiment in a line: Antibacterial activity against methicillin-sensitive Staphylococcus aureus by CLSI-based broth dilution method.
Another test deals with Enterococcus faecium. The test can be described thus: Antibacterial activity against vancomycin-resistant Enterococcus faecium by CLSI-based broth dilution method. As to conditions: time 24 hrs.
Test [7] concerns Escherichia coli. The experiment in a line: Antibacterial activity against ESBL-producing Escherichia coli ATCC 25925 by CLSI-based broth dilution method.
Test [8] has as its system Pseudomonas aeruginosa. The experiment in a line: Antibacterial activity against Pseudomonas aeruginosa ATCC 27853 by CLSI-based broth dilution method.
Test [9] has as its system Staphylococcus aureus. The test can be described thus: Antibacterial activity against Staphylococcus aureus ATCC 29737 incubated for 24 hrs.
In a further test the test system is Micrococcus luteus. The experiment in a line: Antibacterial activity against Micrococcus Luteus ATCC 398 incubated for 24 hrs.
The test system of test [10] is Bacillus cereus. The experiment in a line: Antibacterial activity against Bacillus cereus ATCC 6630 incubated for 24 hrs.
Test [11] deals with Escherichia coli. The test can be described thus: Antibacterial activity against Escherichia coli NCIM 2256 incubated for 24 hrs.
A further test concerns Pseudomonas fluorescens. The test can be described thus: Antibacterial activity against Pseudomonas fluorescens NCIM 2173 incubated for 24 hrs.
The test system of test [12] is Sphingomonas paucimobilis. The test can be described thus: Antibacterial activity against Flavobacterium devorans ATCC 10829 incubated for 24 hrs.
Test [13] concerns Staphylococcus aureus. The test can be described thus: Antibacterial activity against Staphylococcus aureus MTCC 96 incubated for 24 hrs by macrodilution tube method.
In test [14] the test system is Bacillus cereus. The experiment in a line: Antibacterial activity against Bacillus cereus MTCC 430 incubated for 24 hrs by macrodilution tube method.

Usually MIC stands for the lowest concentration found to suppress growth. Read a low MIC as a more susceptible organism. For `COc1ccc(-c2nn(-c3ccccc3)cc2/C=N/NC(=O)c2cccc(-n3cc(-c4ccccc4)nn3)c2)cc1OC`, the MIC with Staphylococcus aureus [1], against Bacillus cereus [2], against Escherichia coli [3] and against Pseudomonas aeruginosa [4] was 2 µg/mL (≈ 3.51 µM) in each case.

Consider `c1ccc(-n2cc(COc3ccc(-c4nc5cc(C6=NCCN6)ccc5[nH]4)cc3)nn2)cc1`, for which the MIC with Klebsiella pneumoniae, against Staphylococcus aureus [5], in the test with Staphylococcus aureus [6], against Enterococcus faecium, in the test with Escherichia coli [7] and with Pseudomonas aeruginosa [8] was 8 µg/mL (≈ 18.4 µM) throughout.

For `CC(C)NC(=N)c1ccc2[nH]c(-c3ccc(OCc4cn(-c5ccc(Cl)cc5)nn4)cc3)nc2c1`, the MIC with Klebsiella pneumoniae, against Staphylococcus aureus [5], in the test on Staphylococcus aureus [6], with Enterococcus faecium, against Escherichia coli [7] and against Pseudomonas aeruginosa [8] was 8 µg/mL (≈ 16.5 µM) throughout.

On to `N=C(N)c1ccc2[nH]c(-c3ccc(OCc4cn(-c5ccccc5)nn4)cc3)nc2c1`, for which the MIC in the test with Klebsiella pneumoniae, in the test on Staphylococcus aureus [5], against Staphylococcus aureus [6], in the test with Enterococcus faecium, against Escherichia coli [7] and against Pseudomonas aeruginosa [8] was 16 µg/mL (≈ 39.1 µM) each time.

For the compound `O=C(N/N=C/c1cn(-c2ccccc2)nc1-c1ccc(O)cc1O)c1cccc(-n2cc(-c3ccccc3)nn2)c1`, the MIC in the test on Staphylococcus aureus [1], in the test on Bacillus cereus [2], against Escherichia coli [3] and in the test with Pseudomonas aeruginosa [4] was 2 µg/mL (≈ 3.69 µM) in each case.

`N=C(N)c1ccc2[nH]c(-c3ccc(OCc4cn(Cc5ccccc5)nn4)cc3)nc2c1`: the MIC in the test on Klebsiella pneumoniae, in the test on Staphylococcus aureus [5], against Staphylococcus aureus [6], in the test with Enterococcus faecium, against Escherichia coli [7] and in the test with Pseudomonas aeruginosa [8] was 16 µg/mL (≈ 37.8 µM) throughout.

Turning to `CC(C)NC(=N)c1ccc2[nH]c(-c3ccc(OCc4cn(Cc5ccccc5)nn4)cc3)nc2c1`, the MIC against Klebsiella pneumoniae, in the test with Staphylococcus aureus [5], in the test on Staphylococcus aureus [6], in the test with Enterococcus faecium, in the test with Escherichia coli [7] and against Pseudomonas aeruginosa [8] was 8 µg/mL (≈ 17.2 µM) throughout.

For `O=C(N/N=C/c1cn(-c2ccccc2)nc1-c1ccccc1)c1cccc(-n2cc(-c3ccccc3)nn2)c1`, the MIC against Staphylococcus aureus [1], against Bacillus cereus [2], in the test on Escherichia coli [3] and with Pseudomonas aeruginosa [4] was 8 µg/mL (≈ 15.7 µM) throughout.

For `O=C(N/N=C/c1cn(-c2ccccc2)nc1-c1ccc(Br)cc1)c1cccc(-n2cc(-c3ccccc3)nn2)c1`, the MIC in the test with Staphylococcus aureus [1], with Bacillus cereus [2], in the test with Escherichia coli [3] and with Pseudomonas aeruginosa [4] was 2 µg/mL (≈ 3.4 µM) each time.

On to `COc1ccc(-n2cc(COc3ccc(-c4nc5cc(C6=NCCN6)ccc5[nH]4)cc3)nn2)cc1`, for which the MIC against Klebsiella pneumoniae, with Staphylococcus aureus [5], against Staphylococcus aureus [6], with Enterococcus faecium, against Escherichia coli [7] and in the test with Pseudomonas aeruginosa [8] was 8 µg/mL (≈ 17.2 µM) in each case.

In the case of `NC[C@H]1O[C@H](O[C@H]2[C@H](O)[C@@H](O[C@H]3O[C@H](CO)[C@@H](O)[C@H](N)[C@H]3O)[C@H](N)C[C@@H]2N)[C@H](O)[C@@H](O)[C@@H]1O` [KANAMYCIN], the MIC (in the test on Staphylococcus aureus [9]; in the test on Micrococcus luteus; in the test on Bacillus cereus [10]; with Escherichia coli [11]; with Pseudomonas fluorescens; in test [12]) was 2 µg/mL (≈ 4.13 µM) throughout.

Consider `Cc1ccc(-c2nn(-c3ccccc3)cc2/C=N/NC(=O)c2cccc(-n3cc(-c4ccccc4)nn3)c2)cc1`, for which the MIC in the test with Staphylococcus aureus [1], against Bacillus cereus [2], with Escherichia coli [3] and against Pseudomonas aeruginosa [4] was 2 µg/mL (≈ 3.82 µM) in each case.

On to `O=C(N/N=C/c1cn(-c2ccccc2)nc1-c1ccc(Cl)cc1)c1cccc(-n2cc(-c3ccccc3)nn2)c1`, for which the MIC against Staphylococcus aureus [1], in the test with Bacillus cereus [2], against Escherichia coli [3] and with Pseudomonas aeruginosa [4] was 4 µg/mL (≈ 7.35 µM) throughout.

`Clc1ccc(-n2cc(COc3ccc(-c4nc5cc(C6=NCCN6)ccc5[nH]4)cc3)nn2)cc1`: the minimum inhibitory concentration (MIC) in the test with Klebsiella pneumoniae, in the test on Staphylococcus aureus [5], against Staphylococcus aureus [6], against Enterococcus faecium, against Escherichia coli [7] and against Pseudomonas aeruginosa [8] was 8 µg/mL (≈ 17 µM) each time.

`O=C(N/N=C/c1cn(-c2ccccc2)nc1-c1ccc(F)cc1)c1cccc(-n2cc(-c3ccccc3)nn2)c1`: the MIC with Staphylococcus aureus [1], against Bacillus cereus [2], against Escherichia coli [3] and with Pseudomonas aeruginosa [4] was 2 µg/mL (≈ 3.79 µM) each time.

Regarding `COc1ccc(-n2cc(COc3ccc(-c4nc5cc(C(=N)NC(C)C)ccc5[nH]4)cc3)nn2)cc1`, the MIC against Klebsiella pneumoniae, with Staphylococcus aureus [5], with Staphylococcus aureus [6], with Enterococcus faecium, against Escherichia coli [7] and against Pseudomonas aeruginosa [8] was 8 µg/mL (≈ 16.6 µM) in each case.

In the case of `O=C(N/N=C/c1cn(-c2ccccc2)nc1-c1cccs1)c1cccc(-n2cc(-c3ccccc3)nn2)c1`, the MIC against Staphylococcus aureus [1], against Bacillus cereus [2], in the test with Escherichia coli [3] and against Pseudomonas aeruginosa [4] was 2 µg/mL (≈ 3.88 µM) throughout.

As to `O=C(N/N=C/c1cn(-c2ccccc2)nc1-c1ccc([N+](=O)[O-])cc1)c1cccc(-n2cc(-c3ccccc3)nn2)c1`, the MIC in the test on Staphylococcus aureus [1], in the test with Bacillus cereus [2], in the test on Escherichia coli [3] and in the test with Pseudomonas aeruginosa [4] was 2 µg/mL (≈ 3.61 µM) each time.

As for `COc1ccc(-c2nn(-c3ccccc3)cc2/C=N/NC(=O)c2cccc(-n3cc(-c4ccccc4)nn3)c2)cc1`, the MIC against Staphylococcus aureus [1], in the test with Bacillus cereus [2], with Escherichia coli [3] and with Pseudomonas aeruginosa [4] was 2 µg/mL (≈ 3.71 µM) in each case.

On to `CC(C)NC(=N)c1ccc2[nH]c(-c3ccc(OCc4cn(-c5ccccc5)nn4)cc3)nc2c1`, for which the MIC in the test on Klebsiella pneumoniae, in the test with Staphylococcus aureus [5], in the test with Staphylococcus aureus [6], with Enterococcus faecium, against Escherichia coli [7] and against Pseudomonas aeruginosa [8] was 8 µg/mL (≈ 17.7 µM) each time.

For the compound `COc1ccc(-n2cc(COc3ccc(-c4nc5cc(C(=N)N)ccc5[nH]4)cc3)nn2)cc1`, the MIC in the test on Klebsiella pneumoniae, against Staphylococcus aureus [5], with Staphylococcus aureus [6], with Enterococcus faecium, in the test with Escherichia coli [7] and against Pseudomonas aeruginosa [8] was 16 µg/mL (≈ 36.4 µM) in each case.

In the case of `N=C(N)c1ccc2[nH]c(-c3ccc(OCc4cn(-c5ccc(Cl)cc5)nn4)cc3)nc2c1`, the MIC in the test with Klebsiella pneumoniae, with Staphylococcus aureus [5], with Staphylococcus aureus [6], in the test on Enterococcus faecium, against Escherichia coli [7] and against Pseudomonas aeruginosa [8] was 16 µg/mL (≈ 36 µM) each time.

For `c1ccc(Cn2cc(COc3ccc(-c4nc5cc(C6=NCCN6)ccc5[nH]4)cc3)nn2)cc1`, the MIC against Klebsiella pneumoniae, in the test on Staphylococcus aureus [5], in the test on Staphylococcus aureus [6], in the test on Enterococcus faecium, in the test on Escherichia coli [7] and in the test on Pseudomonas aeruginosa [8] was 8 µg/mL (≈ 17.8 µM) in each case.

Regarding `O=C(N/N=C/c1cn(-c2ccccc2)nc1-c1cccc(O)c1)c1cccc(-n2cc(-c3ccccc3)nn2)c1`, the MIC against Staphylococcus aureus [1], in the test with Bacillus cereus [2], with Escherichia coli [3] and in the test on Pseudomonas aeruginosa [4] was 2 µg/mL (≈ 3.81 µM) in each case.

In the case of `O=C1CCCC2=C1C(c1ccc(Br)cc1)c1cc3cc(OCc4cn(-c5ccnc6cc(Cl)ccc56)nn4)ccc3cc1O2` (centres undefined), the MIC with Staphylococcus aureus [13] and in the test with Bacillus cereus [14] was 16 µg/mL (≈ 24.1 µM) each time.
